Measurements from patent US12084471B2, “Amino acid derivative of glucosamine stimulating extracellular matrix synthesis and pharmaceutical composition comprising the same” (CARTILAGO S.R.L., priority 2018, dated 2024).

Experiments:
[1] = tested on: fibroblasts stimulated with UVB; assay: fibroblasts stimulated with UVB; type: cell-based
Text: This discovery promptly aroused in the inventors an interest in the ability of this class of products to intervene in the remodeling of the cutaneous ECM, in which the relative alteration of turnover leads to atrophy of the skin, with consequent aging of the skin and in some cases even to onset of skin cancer processes.

[2] = tested on: HAS-2; assay: expression of hyaluronic acid synthetase (HAS-2) and production of hyaluronic acid; type: cell-based
[3] = tested on: human primary chondrocytes; assay: human primary chondrocytes cultured in three dimensions as spheroids, ECM synthesis; type: cell-based; details: human chondrocyte spheroids, compound alone
Description: Finally, in order to understand which intracellular pathways are activated by said N-acetyl-phenylalanine derived from glucosamine to stimulate ECM synthesis, further in vitro studies in human primary chondrocytes were conducted. In order to simulate physiological conditions, the culture of human chondrocytes was carried out in three dimensions, cultivating the cells in the form of spheroids.

[4] = tested on: osteoarthritic knees of mice; assay: in vivo model of OA in mice, intra-articular administration; details: mice OA knee
[5] = tested on: c-jun; assay: activation of c-jun (AP-1 component) in primary cultured chondrocytes stimulated with IL-1; type: cell-based
Description: (§1) To clarify the molecular mechanism, glucosamine-derived N-acetyl-phenylalanine has been studied in vitro, using primary cultured chondrocytes. The chondrocytes were stimulated with IL-1 in order to study the inflammatory pathway, controlled by the Activator Protein (AP)-1. […] The efficacy of interfering with the inflammatory pathway controlled by the transcription factor Nuclear Factor-κB (NF-κB) was then analyzed, which in turn is controlled by the IKK complex consisting of two IKKα and IKKβ kinases.

[6] = biological target: T1, IKKα (Homo sapiens, UniProt O15111); assay: kinase activity of IKKα; type: cell-based
T1 sequence (O15111 1-745): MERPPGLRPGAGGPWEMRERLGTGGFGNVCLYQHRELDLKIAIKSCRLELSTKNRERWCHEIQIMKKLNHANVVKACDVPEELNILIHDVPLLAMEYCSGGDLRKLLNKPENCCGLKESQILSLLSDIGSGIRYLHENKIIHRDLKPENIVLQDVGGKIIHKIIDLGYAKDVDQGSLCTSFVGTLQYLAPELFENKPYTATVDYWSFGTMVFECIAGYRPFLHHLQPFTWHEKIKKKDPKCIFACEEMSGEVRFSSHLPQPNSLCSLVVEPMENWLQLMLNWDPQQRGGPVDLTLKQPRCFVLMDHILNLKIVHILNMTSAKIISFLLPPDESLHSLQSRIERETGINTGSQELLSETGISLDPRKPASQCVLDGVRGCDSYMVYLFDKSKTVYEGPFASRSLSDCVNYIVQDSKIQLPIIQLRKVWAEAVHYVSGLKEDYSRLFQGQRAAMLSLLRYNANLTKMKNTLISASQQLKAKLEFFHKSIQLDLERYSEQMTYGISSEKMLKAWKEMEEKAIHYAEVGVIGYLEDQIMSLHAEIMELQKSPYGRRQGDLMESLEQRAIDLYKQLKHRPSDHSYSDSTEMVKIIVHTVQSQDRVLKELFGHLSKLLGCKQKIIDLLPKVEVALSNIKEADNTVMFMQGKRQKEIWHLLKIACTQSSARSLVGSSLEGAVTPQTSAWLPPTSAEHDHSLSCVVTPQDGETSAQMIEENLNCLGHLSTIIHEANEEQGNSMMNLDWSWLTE
Description: as §1

[7] = biological target: T1, IKKα; assay: translocation of IKKα kinase in the nucleus, primary cultured chondrocytes; type: cell-based
Description: as §1

[8] = tested on: osteoarthritic knees of rabbits; assay: in vivo model of OA in rabbit, intra-articular administration; details: rabbit OA knee
[9] = biological target: T2, IKKβ (Homo sapiens, UniProt O14920); assay: kinase activity of IKKβ; type: cell-based
T2 sequence (O14920 1-756): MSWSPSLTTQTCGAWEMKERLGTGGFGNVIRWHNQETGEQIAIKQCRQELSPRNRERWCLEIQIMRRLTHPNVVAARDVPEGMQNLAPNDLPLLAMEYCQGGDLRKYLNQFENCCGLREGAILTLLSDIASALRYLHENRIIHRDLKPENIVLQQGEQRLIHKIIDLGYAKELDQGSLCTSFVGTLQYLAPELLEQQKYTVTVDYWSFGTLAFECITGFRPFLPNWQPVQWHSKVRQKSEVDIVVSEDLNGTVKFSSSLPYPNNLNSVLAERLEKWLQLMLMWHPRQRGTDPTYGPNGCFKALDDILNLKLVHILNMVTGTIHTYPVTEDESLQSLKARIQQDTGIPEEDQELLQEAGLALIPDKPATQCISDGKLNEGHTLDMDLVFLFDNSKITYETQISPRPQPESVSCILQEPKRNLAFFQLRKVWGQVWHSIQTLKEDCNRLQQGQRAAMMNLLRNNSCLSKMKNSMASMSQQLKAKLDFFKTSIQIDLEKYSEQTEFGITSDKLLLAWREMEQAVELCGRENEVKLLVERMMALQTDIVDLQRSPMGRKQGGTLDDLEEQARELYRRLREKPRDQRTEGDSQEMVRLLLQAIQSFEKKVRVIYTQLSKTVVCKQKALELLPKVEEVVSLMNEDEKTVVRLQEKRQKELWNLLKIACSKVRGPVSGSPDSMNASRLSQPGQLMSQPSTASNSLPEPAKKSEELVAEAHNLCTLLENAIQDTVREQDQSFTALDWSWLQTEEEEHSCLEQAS
Description: as §1

[10] = tested on: p38; assay: p38 phosphorylation in primary cultured chondrocytes stimulated with IL-1; type: cell-based
Description: as §1

[11] = tested on: JNK; assay: JNK phosphorylation in primary cultured chondrocytes stimulated with IL-1; type: cell-based
Description: as §1

## CC(=O)N[C@H](Cc1ccccc1)C(=O)NC1C(O)OC(CO)C(O)C1O (stereo partly drawn) [N-acetyl-phenylalanine derivative of glucosamine]
[1]; UVB-stimulated fibroblasts, synthesis blocked by UVB treatment
  synthesis of type I collagen: restore the synthesis of type I collagen
[1]; compound added to culture medium of UVB-stimulated fibroblasts
  inflammatory pathways stimulated by UVB: able to counteract the inflammatory pathways
[2]
  expression of the enzyme synthetase of hyaluronic acid (HAS-2): stimulate the expression
  production of hyaluronic acid (HA): stimulate
[3]
  synthesis of type II collagen: stimulated the synthesis of type II collagen
[4]
  cartilage structure: structure very similar to the healthy one
  synthesis of new ECM: stimulated the synthesis of new ECM
[5]
  activation of c-jun: influencing the activation of c-jun
[6]
  kinase activity of IKKα: selectively inhibiting the kinase activity of IKKα
[7]
  translocation in the nucleus of the IKKα kinase: inhibited the translocation in the nucleus
[8]
  cartilage structure: structure very similar to the healthy one
  synthesis of new ECM: stimulated the synthesis of new ECM
[9]
  kinase activity of IKKβ: not IKKβ
[10]
  phosphorylation of p38: inhibiting the phosphorylation
[11]
  phosphorylation of JNK: inhibiting the phosphorylation
